The values that follow are results of earlier work, collected in patent EP2505189B1, “Stabilizing alkylglycoside compositions and method thereof” (Aegis Therapeutics, LLC, priority 2006, dated 2007).

The conditions of data set [1]: in water.
The conditions of data set [2]: Phase I, 1987-1990.
Data set [3] deals with HIV-related peripheral neuropathy. The settings on record: in vivo.
The subject of another data set is isolated nasal cilia. The settings on record: in vitro, cilia from 15 human donors.

`CCCCCCCCCCCCCCO[C@@H]1O[C@H](CO)[C@@H](O[C@@H]2O[C@@H](CO)[C@H](O)[C@@H](O)[C@@H]2O)[C@H](O)[C@H]1O` (stereo in doubt) [Tetradecyl maltoside]: the CMC in data set [1] is given as 0.01 mM.

For the molecule `CCCCCCCCCCCCCO[C@@H]1O[C@H](CO)[C@@H](OC2OC(CO)C(O)C(O)C2O)[C@H](O)[C@H]1O` (stereo in doubt) [Tridecyl maltoside], in data set [1], the CMC is listed as 0.03 mM.

`C[C@@H](N)C(=O)N[C@@H](CO)C(=O)N[C@H](C(=O)N[C@H](C(=O)N[C@H](C(=O)N[C@@H](CC(N)=O)C(=O)N[C@@H](Cc1ccc(O)cc1)C(=O)N[C@H](C(N)=O)[C@@H](C)O)[C@@H](C)O)[C@@H](C)O)[C@@H](C)O` [DAPTA, D-ala^1-Peptide T-amide]: the toxicity entry in data set [2] was “complete lack of toxicity”. The adverse drug effects entry in data set [3] is listed as “No adverse drug effects were noted”.

With `CCCCCCCCCCO[C@@H]1O[C@H](CO)[C@@H](O[C@H]2O[C@H](CO)[C@@H](O)[C@H](O)[C@H]2O)[C@H](O)[C@H]1O` [Decyl maltoside], the CMC in data set [1] is 1.8 mM.

As for `CCCCCCCCCCCCO[C@@H]1O[C@H](CO)[C@@H](O[C@H]2O[C@H](CO)[C@@H](O)[C@H](O)[C@H]2O)[C@H](O)[C@H]1O` [Dodecyl β -D-maltoside], the CMC in data set [1] is 0.17 mM.

As for `CCCCCCCCO[C@@H]1O[C@H](CO)[C@@H](O[C@H]2O[C@H](CO)[C@@H](O)[C@H](O)[C@H]2O)[C@H](O)[C@H]1O` [Octyl maltoside], the CMC in data set [1] is on record as 19.5 mM.

As to Sucrose dodecanoate, the CMC in data set [1] is 0.3 mM.

For the molecule benzalkonium chloride [BAC], in the data set with nasal mucosa (0.02% (Lange 2004)), the nasal irritation entry was “no discernible negative effects whatsoever”. Besides, in the data set with nasal mucosa (0.02% twice a day, two weeks of continual regular use (McMahon 1997)), the “effect on the nasal mucosal function” value is recorded as “no detectable effect on the nasal mucosal function”. In the data set with nasal mucosa (in vivo tests (Riechelmann 2004)), the saccharine transport time entry was “did not alter saccharine transport time”. In the data set on nasal mucosa (prolonged use of topical formulations, 14 in vivo studies (Marple 2004)), the “damage to the nasal mucosa” value is listed as “no significant damage to the nasal mucosa”. Further, the “effect on isolated nasal cilia” value in the data set with isolated nasal cilia is “ciliotoxic”.
